One assay deals with T1, 5‐HT2C receptor (Rattus norvegicus, UniProt P08909).
T1 construct: 10 μM pargyline and 160μg of the frontal cortex membrane suspension; from tissue; host or cells: rat (Sprague-Dawley) frontal cortex membranes
T1 sequence (P08909 33-460): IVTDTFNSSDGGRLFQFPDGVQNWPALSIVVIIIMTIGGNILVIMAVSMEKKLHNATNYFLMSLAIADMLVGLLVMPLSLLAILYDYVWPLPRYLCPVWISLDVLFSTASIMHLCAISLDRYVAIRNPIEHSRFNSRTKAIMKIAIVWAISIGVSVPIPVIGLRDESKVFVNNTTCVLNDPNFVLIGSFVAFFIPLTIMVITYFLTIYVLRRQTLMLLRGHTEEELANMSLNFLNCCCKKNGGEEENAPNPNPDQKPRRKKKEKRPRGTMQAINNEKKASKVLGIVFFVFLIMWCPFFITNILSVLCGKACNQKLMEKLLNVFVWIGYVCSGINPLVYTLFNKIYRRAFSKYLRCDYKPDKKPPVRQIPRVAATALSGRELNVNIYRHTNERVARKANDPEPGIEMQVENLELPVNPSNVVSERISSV
As to the kind of experiment: 5‐HT2C competition binding assay ([3H]mesulergine, frontal cortex membranes). Particulars: 5 nM [3H]mesulergine, 95% CI in brackets, read-out: 5‐HT2C Ki (95% CI). How it is done:
(§1) Sprague‐Dawley rats were sacrificed by isoflurane overdose. Brains were rapidly removed and placed on ice. Hippocampi (for the 5‐HT1A assay) and frontal cortices (for the 5‐HT2A and 5‐HT2C assays) were dissected on a Petri dish. The tissue from 10 rats was homogenized in 30 vol. homogenization buffer (50 mM Tris–HCl, […], 1 mM EDTA, 1 mM dithiothreitol) with a handheld Teflon‐glass homogenizer. The homogenate was centrifuged at 48,000 × g at 4 °C for 15 min. The pellet was suspended and homogenized in the homogenization buffer and incubated for 10 min. at 36 °C. The centrifugation and suspension steps were repeated twice. The final pellet was homogenized in 5 vol. 50 mM Tris–HCl, pH = 7.4 buffer and stored at −80 °C for no longer than 6 months. […] For the 5‐HT2C assay, compounds were incubated in duplicate with 5 nM [^3H]mesulergine (specific activity: 80.2 Ci mmol^−1, Revvity, MA, USA) for 60 min. at 36 °C in a 50 mM Tris‐HCl (pH 7.4) buffer, supplemented with 5 mM MgCl2, 140 mM NaCl, 1 mM DTT, 1 mM CaCl2, 10 μM pargyline and 160μg of the frontal cortex membrane suspension. Non‐specific binding was determined with 10μM serotonin. The final DMSO concentration in the assay was 5%. After incubation, the reaction mixture was deposited onto Unifilter GF/C plates (Revvity, MA, USA) presoaked in 0.4% PEI (or 0.4% PEI and 0.5% Triton X‐100 for the 5‐HT2C assay) for 1 h with the FilterMate‐96 Harvester (Revvity, MA, USA). Then, each well was washed with 2 mL of 50 mM Tris–HCl (pH 7.4) buffer to separate bound ligands from free and the plates were left to dry overnight. Then, 35μl of Microscint‐20 scintillation fluid (Revvity, MA, USA) was added to each filter well and left to equilibrate for 2h. Filter‐bound radioactivity was counted in a MicroBeta2 LumiJet scintillation counter (Revvity, MA, USA). Binding curves were fitted with one site non‐linear regression. Binding affinity (pKi and Ki) for each compound was calculated from the […] values with the Cheng‐Prusoff equation from two separate experiments.

Assay [1] has as its target T2, 5‐HT1A receptor (Rattus norvegicus, UniProt P19327).
T2 construct: 80 μg of hippocampal membrane suspension (the 5‐HT1A assay); from tissue; host or cells: rat (Sprague-Dawley) hippocampus membranes
T2 sequence (P19327 1-422): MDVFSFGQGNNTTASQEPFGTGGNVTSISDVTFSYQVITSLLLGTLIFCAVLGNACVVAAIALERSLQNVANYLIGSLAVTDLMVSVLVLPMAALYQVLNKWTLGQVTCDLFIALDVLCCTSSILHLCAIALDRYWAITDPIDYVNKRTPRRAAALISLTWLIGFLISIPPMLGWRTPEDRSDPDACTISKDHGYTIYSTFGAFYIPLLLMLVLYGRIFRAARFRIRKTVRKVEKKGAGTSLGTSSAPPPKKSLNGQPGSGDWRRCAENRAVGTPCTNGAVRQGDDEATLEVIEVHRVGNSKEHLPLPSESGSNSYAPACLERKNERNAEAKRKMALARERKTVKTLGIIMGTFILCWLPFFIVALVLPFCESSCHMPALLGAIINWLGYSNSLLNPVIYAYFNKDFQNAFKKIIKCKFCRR
Description: 5‐HT1A receptor activation in the [35S]GTP‐γ‐S assay (hippocampal membranes). Type of assay: biochemical. Particulars: [35S]GTPγS; for EC50: read-out: EC50 (95% CI, μM), 5‐HT1A receptor G‐protein stimulation. As for the experimental part:
Seven compound concentrations equally spaced on a log scale (10–4 M to 10–10 M) were incubated in duplicate with hippocampal membrane preparations (5μg per well) in assay buffer (50 mM Tris‐HCl, pH = 7.4, 1 mM EGTA, 3 mM MgCl2, 100 mM NaCl, and 30 μM GDP) and 0.08 nM [^35S]GTP‐γ‐S (specific activity: 1250 Ci mmole^−1, Revvity). Nonspecific binding was determined with 10μM of unlabeled GTP‐γ‐S. The final DMSO concentration in the assay was 5%. The reaction mixture was incubated for 90 min. at 30 °C on an orbital shaker set at 250 rpm. Next, the reaction mixture was deposited under vacuum with the FilterMate Harvester (Revvity, USA) onto Unifilter GF/C Plates (Revvity, MA, USA) presoaked with wash buffer (50 mM Tris‐HCl, pH = 7.4). The wells were then rapidly washed with 2 mL of wash buffer. Filter plates were dried overnight at room temperature. Once completely dry, 35 μl of MicroScint PS (Revvity, MA, USA) scintillation fluid was added to each well. Radioactivity was counted in a MicroBeta2 LumiJet scintillation counter (Revvity, MA, USA). Data were analyzed with GraphPad Prism 5.0 software (GraphPad Software, San Diego California USA, www.graphpad.com). The curves were fitted with three‐parameter non‐linear regression model.

Assay [2] addresses T3, 5‐HT2A receptor (Rattus norvegicus, UniProt P14842). Description: 5‐HT2A competition binding assay ([3H]ketanserin, frontal cortex membranes). The arrangement: from tissue; host or cells: rat (Sprague-Dawley) frontal cortex membranes. Particulars: 1 nM [3H]ketanserin, 95% CI in brackets, read-out: 5‐HT2A Ki (95% CI).
Assay [3] addresses T3, 5‐HT2A receptor. Description: Inhibition of 5‐HT‐evoked contractions in isolated rat ileum. The arrangement: segments (1–1.5 cm) of ileum were removed, flushed of luminal contents, and placed in Krebs solution; from tissue; host or cells: isolated rat (Sprague-Dawley) ileum segments. The note with it: 5‐HT 10^−5 M, compounds 10^−8–10^−5 M; for Emax: read-out: EMAX, maximal inhibitory effect on 5‐HT‐induced contractions in the rat ileum; for IC50: IC50, inhibition of 5‐HT‐induced contractions in the rat ileum, contact time 10 min. As for the experimental part: Male rats (Sprague‐Dawley, 160–200 g; Charles River Laboratories; Calco, Italy) were manipulated and cared for in strict compliance with the principles of laboratory animal care. Experimental procedures were conducted in conformity with Italian (D.L. 26/2014) and European (directive 2010/63/EU) regulations on the protection of animals used for scientific purposes and approved by the Italian Ministry. Animal housing complied with recent pharmacological guidance.^[ [40] ^] All animals weighing 160–200 g were used after a 1‐week acclimation period (temperature 23 ± 2 °C; humidity 60%, free access to water and standard food).
The segments were prepared as previously described:^[ [41] ^] the segments were set up in such a way as to record contractions mainly from the longitudinal axis, in an organ bath containing 20 mL of Krebs solution, bubbled with 95% O2 and 5% CO2 and maintained at 37 °C. The tissues were connected to an isotonic transducer (load: 0.5 g), connected to Power Lab system (Ugo Basile, Comerio, Italy). Ileal segments were equilibrated for 60 min^[ [16] ^] followed by three repeated additions of submaximal concentration of 5‐HT (10^−5 M) in order to record stable control contractions. […] The contact time for each concentration was 10 min. The compounds were dissolved in DMSO. […] Results are expressed as mean (SEM). […] The IC50 and Emax values were calculated with the aid of a computer program (GraphPad Prism 5).

The target of assay [4] is T2, 5‐HT1A receptor. As to the kind of experiment: 5‐HT1A competition binding assay ([3H]8‐OH‐DPAT, hippocampal membranes). Particulars: 1 nM [3H]8‐OH‐DPAT, 95% CI in brackets, read-out: 5‐HT1A Ki (95% CI). How it is done: as §1
Setting [5] is: rat hippocampal membranes, 95% CI in brackets.

Several values for one entry are separate records, joined by “and”; a condition that tells them apart may be missing. Equal entries are not always repeated.

T3 sequence (P14842 whole entry): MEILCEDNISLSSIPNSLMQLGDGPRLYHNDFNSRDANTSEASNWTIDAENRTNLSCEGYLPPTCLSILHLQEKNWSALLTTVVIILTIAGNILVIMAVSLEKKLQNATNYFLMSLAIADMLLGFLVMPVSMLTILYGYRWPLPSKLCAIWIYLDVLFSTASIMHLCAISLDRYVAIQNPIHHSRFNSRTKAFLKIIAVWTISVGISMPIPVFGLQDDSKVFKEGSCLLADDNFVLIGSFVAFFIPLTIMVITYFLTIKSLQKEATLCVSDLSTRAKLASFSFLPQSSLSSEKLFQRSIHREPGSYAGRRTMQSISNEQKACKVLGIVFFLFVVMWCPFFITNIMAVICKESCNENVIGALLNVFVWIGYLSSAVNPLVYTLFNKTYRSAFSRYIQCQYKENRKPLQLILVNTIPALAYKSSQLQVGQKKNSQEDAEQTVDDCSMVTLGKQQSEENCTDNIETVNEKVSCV

On to `O=C1C2C3C=CC(O3)C2C(=O)N1OCCCN1CCN(c2cccc(C3=NCCS3)c2)CC1` (stereo not drawn) [FG‐11, 2‐(3‐(4‐(3‐(4,5‐dihydrothiazol‐2‐yl) phenyl) piperazin‐1‐yl) propoxy)‐3a,4,7,7a‐tetrahydro‐1H‐4,7‐epoxyisoindole‐1,3(2H)‐dione], for which, at 5‐HT2C receptor, the Ki came out at 40.5 µM. At 5‐HT1A receptor [1] (rat hippocampal membranes), the “Emax (%) ± SEM, 5‐HT1A receptor G‐protein stimulation” value (“Emax (%) ± SEM” below) is “No activity” and the “pEC50, 5‐HT1A receptor G‐protein stimulation” value is given as “No activity”. For the same compound, the “EC50 (95% CI, μM), 5‐HT1A receptor G‐protein stimulation” value on 5‐HT1A receptor [1] (setting [5]) is reported as “No activity”. The “agonist activity for the 5‐HT1A receptor (classification in words)” value on 5‐HT1A receptor [1] (efficacy compared with 8‐OH‐DPAT) is reported as “do not express any agonist activity”. Also, the Ki at 5‐HT2A receptor [2] was 1.48 µM. On 5‐HT2A receptor [3], the Emax turned out to be 28.7% and half-maximal inhibition (IC50) was put at 4.39 µM. The inhibition constant Ki at 5‐HT1A receptor [4] turned out to be 2.2 µM.
As to `O=C(NCCCN1CCN(c2cccc(C3=NCCS3)c2)CC1)C1CC2C=CC1C2` (stereo not drawn) [FG‐14, Exo‐N‐(3‐(4‐(3‐(4,5‐dihydrothiazol‐2‐yl)phenyl)piperazin‐1‐yl)propyl) bicyclo [2.2.1] hept‐5‐ene‐2‐carboxamide], the values for the Ki at 5‐HT2C receptor, at 5‐HT2A receptor [2] and on 5‐HT1A receptor [4] were 0.072 µM, 0.43 µM and 0.34 µM, respectively. Also, the EC50 at 5‐HT1A receptor [1] (setting [5]) was determined as 23.3 µM. Besides, on 5‐HT1A receptor [1] (rat hippocampal membranes, read-out: Emax (%) ± SEM, 5‐HT1A receptor G‐protein stimulation), the Emax was 133 ± 5.7%. For the same compound, the “EMAX, maximal inhibitory effect on 5‐HT‐induced contractions in the rat ileum” value on 5‐HT2A receptor [3] worked out at 22.48%. At 5‐HT2A receptor [3], this compound yielded an IC50 of 2.59 µM.
Turning to `O=C(NCCCN1CCN(c2ccccc2C2=NCCS2)CC1)C1CC2C=CC1C2` (stereo not drawn) [FG‐16, Endo‐N‐(3‐(4‐(2‐(4,5‐dihydrothiazol‐2‐yl)phenyl)piperazin‐1‐yl)propyl) bicyclo[2.2.1] hept‐5‐ene‐2‐carboxamide], the Ki on 5‐HT2C receptor was 4.83 µM; on 5‐HT2A receptor [2], 1.37 µM; at 5‐HT1A receptor [4], 0.025 µM and 0.0251 µM. The “Emax (%) ± SEM” value on 5‐HT1A receptor [1] (rat hippocampal membranes) stood at 127 ± 3.2%. Moreover, the EC50 at 5‐HT1A receptor [1] (setting [5]) is 41 µM. Moreover, the maximal response (Emax) at 5‐HT2A receptor [3] stood at 39.1%. Further, on 5‐HT2A receptor [3], inhibition was half-maximal at 6.35 µM (IC50).
In the case of `O=C(NCCCN1CCN(c2cccc(C3=NCCS3)c2)CC1)C1CC2C=CC1C2` (stereo not drawn) [FG‐17, Endo‐N‐(3‐(4‐(3‐(4,5‐dihydrothiazol‐2‐yl)phenyl)piperazin‐1‐yl)propyl) bicyclo[2.2.1]hept‐5‐ene‐2‐carboxamide], the inhibition constant Ki on 5‐HT2C receptor was 1.66 µM; on 5‐HT2A receptor [2], 6.06 µM; at 5‐HT1A receptor [4] it was 0.823 µM. Further, the “Emax (%) ± SEM” value on 5‐HT1A receptor [1] (rat hippocampal membranes) is listed as 134 ± 2.5%. In addition, the 50% effective concentration (EC50) at 5‐HT1A receptor [1] (setting [5]) was 21.1 µM. Moreover, on 5‐HT2A receptor [3], the maximal response (Emax) was 25%. Moreover, the IC50 against 5‐HT2A receptor [3] was 1.25 µM.

In general, Ki refers to the dissociation constant of the complex between target and ligand, obtained from inhibition or displacement. A word on the Emax: it is the size of the effect at its maximum, as opposed to the concentration needed. Usually IC50 stands for the concentration needed to halve the response being measured. By EC50 is commonly meant the concentration at which the effect is half-maximal.

The record behind these values is article PMC12321279, “Novel 4,5‐Dihydrothiazole‐Phenylpiperazine Derivatives: Synthesis, Docking Studies and Pharmacological Evaluation as Serotonergic Agents” (Chemmedchem, 2025).
